Experimental data as given in patent US11739098B2 (BRISTOL-MYERS SQUIBB COMPANY, priority 2017, dated 2023).

Legend:
Format in all cases: cell-based
[1] = target: T1, human TLR7 (Homo sapiens, UniProt Q9NYK1); test: TLR7 inhibition reporter assay (HEK-Blue cells, SEAP reporter, gardiquimod stimulation); settings: HEK-Blue cells overexpressing human TLR7, SEAP reporter, gardiquimod 7.5 μM
T1 construct: host or cells: HEK-Blue cells (HEK293-derived reporter line)
T1 sequence (Q9NYK1 27-1049): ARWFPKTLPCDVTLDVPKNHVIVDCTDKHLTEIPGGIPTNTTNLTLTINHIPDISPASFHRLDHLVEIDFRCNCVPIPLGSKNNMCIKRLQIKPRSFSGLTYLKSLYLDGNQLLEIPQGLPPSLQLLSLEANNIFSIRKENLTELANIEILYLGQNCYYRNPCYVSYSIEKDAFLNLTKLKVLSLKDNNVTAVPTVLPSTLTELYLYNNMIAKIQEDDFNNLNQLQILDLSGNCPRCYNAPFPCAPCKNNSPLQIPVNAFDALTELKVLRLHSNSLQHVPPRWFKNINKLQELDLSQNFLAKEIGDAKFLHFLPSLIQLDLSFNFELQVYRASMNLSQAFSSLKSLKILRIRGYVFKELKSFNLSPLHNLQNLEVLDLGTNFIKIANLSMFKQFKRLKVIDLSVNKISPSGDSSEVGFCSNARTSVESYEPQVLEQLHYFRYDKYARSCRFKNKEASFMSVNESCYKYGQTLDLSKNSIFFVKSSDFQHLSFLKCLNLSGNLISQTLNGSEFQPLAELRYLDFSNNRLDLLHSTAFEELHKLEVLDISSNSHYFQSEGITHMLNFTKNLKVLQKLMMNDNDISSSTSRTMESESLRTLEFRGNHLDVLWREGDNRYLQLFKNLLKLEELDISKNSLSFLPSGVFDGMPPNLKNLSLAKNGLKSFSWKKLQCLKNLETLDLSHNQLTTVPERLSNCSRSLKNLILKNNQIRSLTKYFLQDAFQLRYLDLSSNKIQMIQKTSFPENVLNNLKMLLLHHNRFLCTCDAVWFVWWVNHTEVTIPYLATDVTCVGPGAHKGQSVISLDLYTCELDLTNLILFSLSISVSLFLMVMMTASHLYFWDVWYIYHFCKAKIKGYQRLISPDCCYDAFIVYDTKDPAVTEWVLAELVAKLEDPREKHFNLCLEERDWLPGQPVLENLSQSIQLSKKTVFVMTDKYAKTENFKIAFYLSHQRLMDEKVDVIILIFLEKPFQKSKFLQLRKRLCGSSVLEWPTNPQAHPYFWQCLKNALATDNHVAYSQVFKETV
Method in brief: (§1)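 HEK-Blue cells overexpressing the receptor, with NF-κB/AP-1-driven SEAP, were pre-treated 30 min at room temperature with compound (0.05 nM–50 μM), then stimulated with gardiquimod 7.5 μM (TLR7), R848 15.9 μM (TLR8) or ODN2006 5 nM (TLR9). SEAP was read after 22 h at 37 °C as percent inhibition.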

[2] = target: T2, human TLR8 (Homo sapiens, UniProt Q9NR97); test: TLR8 inhibition reporter assay (HEK-Blue cells, SEAP reporter, R848 stimulation); settings: HEK-Blue cells overexpressing human TLR8, SEAP reporter, R848 15.9 μM
T2 construct: host or cells: HEK-Blue cells (HEK293-derived reporter line)
T2 sequence (Q9NR97 27-1041): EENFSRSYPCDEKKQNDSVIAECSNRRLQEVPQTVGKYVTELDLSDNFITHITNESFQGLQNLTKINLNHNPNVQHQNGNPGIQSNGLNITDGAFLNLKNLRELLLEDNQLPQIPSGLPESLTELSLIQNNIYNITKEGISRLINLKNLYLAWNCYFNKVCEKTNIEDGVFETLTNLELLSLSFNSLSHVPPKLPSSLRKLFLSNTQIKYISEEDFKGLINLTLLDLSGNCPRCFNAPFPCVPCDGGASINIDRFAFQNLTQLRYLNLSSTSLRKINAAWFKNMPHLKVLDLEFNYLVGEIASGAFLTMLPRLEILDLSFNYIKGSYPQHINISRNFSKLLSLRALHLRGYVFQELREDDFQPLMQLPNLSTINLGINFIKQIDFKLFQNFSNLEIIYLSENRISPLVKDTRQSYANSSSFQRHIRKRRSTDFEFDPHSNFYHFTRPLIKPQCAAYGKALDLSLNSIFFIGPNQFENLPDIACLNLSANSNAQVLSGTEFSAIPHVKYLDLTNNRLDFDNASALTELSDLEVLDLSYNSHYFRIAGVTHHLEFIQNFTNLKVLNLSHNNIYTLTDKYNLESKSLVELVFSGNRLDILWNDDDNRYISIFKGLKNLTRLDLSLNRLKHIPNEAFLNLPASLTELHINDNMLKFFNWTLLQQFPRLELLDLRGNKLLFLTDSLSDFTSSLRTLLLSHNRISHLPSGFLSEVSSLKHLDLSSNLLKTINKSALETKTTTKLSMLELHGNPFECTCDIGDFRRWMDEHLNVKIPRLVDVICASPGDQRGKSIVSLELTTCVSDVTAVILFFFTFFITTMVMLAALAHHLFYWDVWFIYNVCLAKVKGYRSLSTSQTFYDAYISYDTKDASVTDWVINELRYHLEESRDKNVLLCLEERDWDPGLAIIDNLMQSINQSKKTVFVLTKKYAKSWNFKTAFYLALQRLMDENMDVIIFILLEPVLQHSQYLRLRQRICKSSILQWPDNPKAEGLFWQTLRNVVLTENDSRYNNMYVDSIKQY
Method in brief: as §1

[3] = target: T3, human TLR9 (Homo sapiens, UniProt Q9NR96); test: TLR9 inhibition reporter assay (HEK-Blue cells, SEAP reporter, ODN2006 stimulation); settings: HEK-Blue cells overexpressing human TLR9, SEAP reporter, ODN2006 5 nM
T3 construct: host or cells: HEK-Blue cells (HEK293-derived reporter line)
T3 sequence (Q9NR96 26-1032): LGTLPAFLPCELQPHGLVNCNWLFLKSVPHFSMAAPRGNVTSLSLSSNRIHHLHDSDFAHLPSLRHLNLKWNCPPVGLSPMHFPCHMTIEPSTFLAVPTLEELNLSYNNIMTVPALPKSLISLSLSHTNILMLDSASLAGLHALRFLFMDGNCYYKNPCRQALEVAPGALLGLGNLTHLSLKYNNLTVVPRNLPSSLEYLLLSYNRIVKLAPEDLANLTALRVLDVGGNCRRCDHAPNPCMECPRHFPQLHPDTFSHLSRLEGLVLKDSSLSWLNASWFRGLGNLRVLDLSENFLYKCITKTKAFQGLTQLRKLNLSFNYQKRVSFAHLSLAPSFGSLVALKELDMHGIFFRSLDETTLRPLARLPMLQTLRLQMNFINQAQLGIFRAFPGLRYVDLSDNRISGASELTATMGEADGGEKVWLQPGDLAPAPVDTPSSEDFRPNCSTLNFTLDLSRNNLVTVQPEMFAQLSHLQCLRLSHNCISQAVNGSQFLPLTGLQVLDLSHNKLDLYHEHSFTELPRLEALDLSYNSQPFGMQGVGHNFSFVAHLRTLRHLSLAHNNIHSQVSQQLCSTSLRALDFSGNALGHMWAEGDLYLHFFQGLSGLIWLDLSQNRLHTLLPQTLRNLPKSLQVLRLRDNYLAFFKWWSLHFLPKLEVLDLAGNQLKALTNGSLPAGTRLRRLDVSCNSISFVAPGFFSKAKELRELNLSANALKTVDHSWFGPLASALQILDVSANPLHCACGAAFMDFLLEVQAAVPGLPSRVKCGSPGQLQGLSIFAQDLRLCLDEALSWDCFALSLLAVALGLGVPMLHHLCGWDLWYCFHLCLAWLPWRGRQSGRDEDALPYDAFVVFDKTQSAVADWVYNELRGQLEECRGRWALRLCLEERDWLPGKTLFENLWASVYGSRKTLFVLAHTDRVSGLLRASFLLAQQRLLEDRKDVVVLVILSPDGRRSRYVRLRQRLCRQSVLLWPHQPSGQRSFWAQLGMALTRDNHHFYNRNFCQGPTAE
Method in brief: as §1

| SMILES | IC50 [1] [nM] | IC50 [2] [nM] | IC50 [3] [nM] |
| --- | --- | --- | --- |
| CCc1c(-c2ccnc3[nH]ncc23)[nH]c2ccc(C3CCN(Cc4csc(C(C)C)n4)CC3)cc12 [Example 859, 4-((4-(3-ethyl-2-(1H-pyrazolo[3,4-b]pyridin-4-yl)-1H-indol-5-yl)piperidin-1-yl)methyl)-2-isopropylthiazole] | 100 to 1000 | 100 to 1000 | 1000 to 50000 |
| Cc1cc(-c2[nH]c3ccc(C4CCN(C(=O)CN(C)C)CC4)cc3c2C(C)C)nn2ncnc12 [Example 454, 2-(dimethylamino)-1-(4-(3-isopropyl-2-(8-methyl-[1,2,4]triazolo[1,5-b]pyridazin-6-yl)-1H-indol-5-yl)piperidin-1-yl)ethan-1-one] | < 100 | < 100 | 1000 to 50000 |
| Cc1nc2cc(-c3[nH]c4ccc(C5CCN(CC(=O)N(C)C)CC5)cc4c3C(C)C)ccn2n1 [Example 326, 2-(4-(3-isopropyl-2-(2-methyl-[1,2,4]triazolo[1,5-a]pyridin-7-yl)-1H-indol-5-yl)piperidin-1-yl)-N,N-dimethylacetamide] | < 100 | 100 to 1000 | 1000 to 50000 |
| Cc1nc(CN2CCC(c3ccc4[nH]c(-c5ccc6nccn6c5)c(C(C)C)c4c3)CC2)c[nH]1 [Example 938, 6-(3-isopropyl-5-(1-((2-methyl-1H-imidazol-4-yl)methyl)piperidin-4-yl)-1H-indol-2-yl)imidazo[1,2-a]pyridine] | < 100 | < 100 | 100 to 1000 |
| Cc1cc2nnnn2cc1-c1[nH]c2ccc(C3CCN(CCS(C)(=O)=O)CC3)cc2c1C(C)C [Example 790, 6-(3-isopropyl-5-(1-(2-(methylsulfonyl)ethyl)piperidin-4-yl)-1H-indol-2-yl)-7-methyltetrazolo[1,5-a]pyridine] | < 100 | < 100 | 1000 to 50000 |
| CNCC(=O)N1CCC(c2ccc3[nH]c(-c4cnc5ccnn5c4)c(C(C)C)c3c2)CC1 [Example 503, 1-(4-(3-isopropyl-2-(pyrazolo[1,5-a]pyrimidin-6-yl)-1H-indol-5-yl)piperidin-1-yl)-2-(methylamino)ethan-1-one] | 100 to 1000 | > 3130 | 100 to 1000 |
| CNC(=O)CN1CCC(c2ccc3[nH]c(-c4cc(OC)c5nccn5c4)c(C(C)C)c3c2)CC1 [Example 434, 2-(4-(3-isopropyl-2-(8-methoxyimidazo[1,2-a]pyridin-6-yl)-1H-indol-5-yl)piperidin-1-yl)-N-methylacetamide] | < 100 | < 100 | 100 to 1000 |
| CNCCN1CCC(c2ccc3[nH]c(-c4ccc5scnc5c4)c(C)c3c2)CC1 [compound 659] | 1000 to 50000 | > 3130 | 100 to 1000 |
| CNCCN1CCC(c2ccc3[nH]c(-c4ccc5c(ccn5C)c4)c(C)c3c2)CC1 [Example 672, 2-(4-(1′,3-dimethyl-1H,1′H-[2,5′-biindol]-5-yl)piperidin-1-yl)-N-methylethan-1-amine] | > 50000 | > 3130 | 100 to 1000 |

Other lines, results leading:

| IC50 [1] [nM] | IC50 [2] [nM] | IC50 [3] [nM] | SMILES |
| --- | --- | --- | --- |
| < 100 | 1000 to 50000 | 1000 to 50000 | Cc1nn2ccc(-c3[nH]c4ccc(C5CCN(CC(=O)N(C)C)CC5)cc4c3C(C)C)cc2c1F [Example 399, 2-(4-(2-(3-fluoro-2-methylpyrazolo[1,5-a]pyridin-5-yl)-3-isopropyl-1H-indol-5-yl)piperidin-1-yl)-N,N-dimethylacetamide] |
| < 100 | < 100 | 1000 to 50000 | Cc1cc(-c2[nH]c3ccc(C4CCN(S(=O)(=O)CCN(C)C)CC4)cc3c2C(C)C)cn2nnnc12 [Example 617, 2-((4-(3-isopropyl-2-(8-methyltetrazolo[1,5-a]pyridin-6-yl)-1H-indol-5-yl)piperidin-1-yl)sulfonyl)-N,N-dimethylethan-1-amine] |
| < 100 | < 100 | 100 to 1000 | CC(C)c1c(-c2ccn3ccnc3c2)[nH]c2ccc(C3CCNCC3)cc12 [Example 203, 7-(3-isopropyl-5-(piperidin-4-yl)-1H-indol-2-yl)imidazo[1,2-a]pyridine] |
| < 100 | < 100 | 100 to 1000 | Cc1cn2cc(-c3[nH]c4ccc(C5CCNCC5)cc4c3C(C)C)cc(C)c2n1 [Example 120, 6-(3-isopropyl-5-(piperidin-4-yl)-1H-indol-2-yl)-2,8-dimethylimidazo[1,2-a]pyridine] |
| < 100 | 100 to 1000 | 1000 to 50000 | Cc1cn2cc(-c3[nH]c4ccc(C5CCN(Cc6cnn(C)c6)CC5)cc4c3C(C)C)cc(C(F)(F)F)c2n1 [Example 934, 6-(3-isopropyl-5-(1-((1-methyl-1H-pyrazol-4-yl)methyl)piperidin-4-yl)-1H-indol-2-yl)-2-methyl-8-(trifluoromethyl)imidazo[1,2-a]pyridine] |
| < 100 | 100 to 1000 | 1000 to 50000 | CC(C)c1c(-c2cc(CO)c3nnnn3c2)[nH]c2ccc(C3CCNCC3)cc12 [Example 71, (6-(3-isopropyl-5-(piperidin-4-yl)-1H-indol-2-yl)tetrazolo[1,5-a]pyridin-8-yl)methanol] |
